Source: patent US4528289A, “Corynantheine derivates, processes for their preparation, and their use” (Dr. Willmar Schwabe GmbH & Co., priority 1982, dated 1985)

What was measured:
[1] = acute toxicity, LD50 (Litchfield and Wilcoxon) on mice; type: in vivo; conditions: mouse, in vivo, mice
Text: (§1) The toxicity of the compounds according to the present invention can be seen from the LD50 values given in the following Table 8 for intravenous, intraperitoneal and oral administration.

[2] = test system: mice; assay: as above; type: in vivo; conditions: i.v., i.p. and oral LD50, mice
Text: as §1

[3] = test system: mice; assay: sedating action on mice after oral administration; type: in vivo; conditions: 5 to 20 mg/kg, dosage-dependent
[4] = test system: aconitine-induced arrythmias; assay: protection against aconitine-induced arrhythmias in urethane-narcotised rats, i.v.; type: in vivo; conditions: 2 to 5 mg/kg (THCN)
Text: (§2) The antiarrhythmic effectiveness of DHCN and THCN was investigated on mice and rats.

[5] = test system: systolic blood pressure of spontaneously hypertonic rats; assay: chronological course of blood pressure decrease in spontaneously hypertonic rats; type: in vivo, rat
Text: (§3) The blood pressure-lowering action of the compound THCN according to the present invention and of DHCN was investigated on spontaneously hypertonic rats after oral administration and compared with that of ajmalicine. The method thereby used for the measurement of the systolic blood pressure and of the heart rate on rats is described in Arzneimittel-Forschung, 18, 1285-1287/1968. Before commencement of the experiments, the animals were familiarised with the measurement procedure.
(§4) In a further series of experiments, the chronological course of the blood pressure lowering was investigated. For this purpose, spontaneously hypertonic rats were treated with 10 mg./kg. DHCN and with 5 or 10 mg./kg. THCN per os and in each case 6 or 12 animals of the treated group were measured at definite times after the treatment.

[6] = test system: stereotypy brought about by apomorphine; assay: potentiation of apomorphine stereotypy in mice; type: in vivo; conditions: oral, 10 to 20 mg/kg
[7] = test system: mice; assay: body temperature-lowering action on mice after oral administration; type: in vivo; conditions: 5 to 20 mg/kg, dosage-dependent
[8] = test system: "head twitch" syndrome caused by 5-hydroxytryptophane; assay: inhibition of "head twitch" syndrome caused by 5-hydroxytryptophane on mice; type: in vivo; conditions: concluded from head twitch test
[9] = stability towards acids and other agents; type: physicochemical
[10] = test system: heart rate of spontaneously hypertonic rats; assay: chronological course of heart rate of spontaneously hypertonic rats; type: in vivo, rat; set-up: heart rate at time t: unit not given here
Text: as §3, §4

[11] = test system: systolic blood pressure of spontaneously hypertonic rats; assay: regression analysis of the dosage-activity relationship (blood pressure lowering); type: in vivo, rat; conditions: compared with DHCN and ajmalicine
Text: as §3
(§5) In a first series of experiments, the systolic blood pressure and the heart rate were investigated 2 hours after the oral administration of the test substances in the form of their hydrochlorides. The substances were suspended in 0.2% agar and administered in a volume of 10 ml./kg. It follows therefrom that all three substances lower the blood pressure in a dosage-dependent manner.
The calculation of the regression lines gives, in all three cases, a statistically significant correlation between dosage and degree of blood pressure lowering (cf. the following Table 4). For ajmalicine, in the case of a dosage of 56 mg./kg., the lowering reached a maximum of about 18%, which could not be exceeded with dosages of up to 100 mg./kg.

[12] = test system: systolic blood pressure of spontaneously hypertonic rats; assay: systolic blood pressure of spontaneously hypertonic rats after oral administration; type: in vivo, rat; conditions: 2 h, tetrahydrocorynantheine
Text: as §3, §5

[13] = test system: heart rate of spontaneously hypertonic rats; assay: heart rate of spontaneously hypertonic rats after oral administration; type: in vivo, rat; conditions: 2 h, tetrahydrocorynantheine
Text: as §3, §5

[14] = test system: CHCl3 arrhythmia; assay: inhibition of CHCl3 arrhythmia on mice, i.p.; type: in vivo
Text: as §2

SMILES: CC[C@H]1CN2CCc3c([nH]c4ccccc34)[C@@H]2C[C@@H]1C(COC)C(=O)OC (some centres unmarked) [THCN, tetrahydrocorynantheine]
- LD50 ([1]; ip): 133 mg/kg
- LD50 ([1]; iv): 14.1 mg/kg
- LD50 ([1]; po): 283 mg/kg
- toxicities compared (in words) [2]: almost the same
- sedating action (in words) [3]: sedating
- antiarrhythmic effectiveness, aconitine-induced arrythmias (in words) [4]: protects against aconitine-induced arrythmias
- percentage decrease of blood pressure ([5]; 5 mg/kg p.o., 10 min.): 11.1%
- percentage decrease of blood pressure ([5]; 5 mg/kg p.o., 20 min.): 13.8%
- percentage decrease of blood pressure ([5]; 5 mg/kg p.o., 40 min.): 12.8%
- percentage decrease of blood pressure ([5]; 5 mg/kg p.o., 80 min.): 13.8%
- percentage decrease of blood pressure ([5]; 5 mg/kg p.o., 2 h.): 8.1%
- percentage decrease of blood pressure ([5]; 5 mg/kg p.o., 4 h.): -0.2%
- percentage decrease of blood pressure ([5]; 5 mg/kg p.o., 6 h.): 4.0%
- percentage decrease of blood pressure ([5]; 10 mg/kg p.o., 10 min.): 13.5%
- percentage decrease of blood pressure ([5]; 10 mg/kg p.o., 20 min.): 29.3%
- percentage decrease of blood pressure ([5]; 10 mg/kg p.o., 40 min.): 27.8%
- percentage decrease of blood pressure ([5]; 10 mg/kg p.o., 80 min.): 23.0%
- percentage decrease of blood pressure ([5]; 10 mg/kg p.o., 2 h.): 14.4%
- percentage decrease of blood pressure ([5]; 10 mg/kg p.o., 4 h.): 14.0%
- percentage decrease of blood pressure ([5]; 10 mg/kg p.o., 6 h.): 15.9%
- blood pressure lowering action compared (in words) ([5]; DHCN 10 mg/kg vs THCN 5 mg/kg p.o.): the same action
- time of maximum blood pressure lowering ([5]; DHCN 10 mg/kg, THCN 5 mg/kg p.o.): about 40 minutes
- blood pressure after the maximum (in words) ([5]; DHCN 10 mg/kg, THCN 5 mg/kg p.o., after about 40 minutes): the blood pressure again increases to the initial value
- blood pressure lowering action (in words) ([5]; THCN 10 mg/kg p.o.): a stronger action
- time of maximum blood pressure lowering ([5]; THCN 10 mg/kg p.o.): 20 min
- maximum blood pressure lowering ([5]; THCN 10 mg/kg p.o., 20 minutes after administration): 30%
- blood pressure after 6 hours (in words) ([5]; THCN 10 mg/kg p.o., 6 hours): still distinctly below the initial value
- blood pressure-lowering action compared with ajmalicine (in words) ([5]; oral administration): clearly stronger and longer-lasting blood pressure-lowering action
- apomorphine stereotypy (in words) [6]: potentiated the stereotypy
- central dopaminergic-stimulating property (in words) [6]: central dopaminergic-stimulating property
- body temperature-lowering action (in words) [7]: body temperature-lowering action
- central antiserotoninergic action (in words) [8]: central antiserotoninergic action
- stability compared with dihydrocorynantheine (in words) [9]: substantially more stable than dihydrocorynantheine
- stability towards acids and other agents (in words) [9]: astonishingly stable towards acids and other agents
- heart rate at time t ([10]; 5 mg/kg p.o., 10 min.): 504
- heart rate at time t ([10]; 5 mg/kg p.o., 20 min.): 492
- heart rate at time t ([10]; 5 mg/kg p.o., 40 min.): 499
- heart rate at time t ([10]; 5 mg/kg p.o., 80 min.): 503
- heart rate at time t ([10]; 5 mg/kg p.o., 2 h.): 508
- heart rate at time t ([10]; 5 mg/kg p.o., 4 h.): 502
- heart rate at time t ([10]; 5 mg/kg p.o., 6 h.): 489
- heart rate at time t ([10]; 10 mg/kg p.o., 10 min.): 519
- heart rate at time t ([10]; 10 mg/kg p.o., 20 min.): 518
- heart rate at time t ([10]; 10 mg/kg p.o., 40 min.): 499
- heart rate at time t ([10]; 10 mg/kg p.o., 80 min.): 520
- heart rate at time t ([10]; 10 mg/kg p.o., 2 h.): 519
- heart rate at time t ([10]; 10 mg/kg p.o., 4 h.): 519
- heart rate at time t ([10]; 10 mg/kg p.o., 6 h.): 503
- heart rate change (in words) ([10]; DHCN 10 mg/kg, THCN 10 mg/kg, on the border of statistical significance): an increase is to be observed
- heart rate change (in words) ([10]; THCN 5 mg/kg): does not change
- dosage activity curve (in words) [11]: steeper
- strength of action (in words) ([11]; higher dosages): stronger in higher dosages
- systolic blood pressure, subsequent value ([12]; 5 mg/kg p.o.): 178 ± 4 mm Hg
- systolic blood pressure, Δ ([12]; 5 mg/kg p.o.): -15 ± 3 mm Hg
- systolic blood pressure, Δ % ([12]; 5 mg/kg p.o.): -7.7 ± 1.8%
- systolic blood pressure, subsequent value ([12]; 10 mg/kg p.o.): 168 ± 5 mm Hg
- systolic blood pressure, Δ ([12]; 10 mg/kg p.o.): -28 ± 6 mm Hg
- systolic blood pressure, Δ % ([12]; 10 mg/kg p.o.): -14.3 ± 4.7%
- systolic blood pressure, subsequent value ([12]; 18 mg/kg p.o.): 165 ± 13 mm Hg
- systolic blood pressure, Δ ([12]; 18 mg/kg p.o.): -33 ± 11 mm Hg
- systolic blood pressure, Δ % ([12]; 18 mg/kg p.o.): -16.5 ± 5.8%
- systolic blood pressure, subsequent value ([12]; 30 mg/kg p.o.): 146 ± 5 mm Hg
- systolic blood pressure, Δ ([12]; 30 mg/kg p.o.): -43 ± 5 mm Hg
- systolic blood pressure, Δ % ([12]; 30 mg/kg p.o.): -21.9 ± 3.9%
- systolic blood pressure, subsequent value ([12]; 40 mg/kg p.o.): 132 ± 9 mm Hg
- systolic blood pressure, Δ ([12]; 40 mg/kg p.o.): -74 ± 10 mm Hg
- systolic blood pressure, Δ % ([12]; 40 mg/kg p.o.): -35.7 ± 4.7%
- heart rate, subsequent value ([13]; 5 mg/kg p.o.): 508 ± 7 beats/min.
- heart rate, Δ ([13]; 5 mg/kg p.o.): 6 ± 12 beats/min.
- heart rate, Δ % ([13]; 5 mg/kg p.o.): 1.2 ± 7.1%
- heart rate, subsequent value ([13]; 10 mg/kg p.o.): 519 ± 9 beats/min.
- heart rate, Δ ([13]; 10 mg/kg p.o.): 21 ± 11 beats/min.
- heart rate, Δ % ([13]; 10 mg/kg p.o.): 4.2 ± 3.3%
- heart rate, subsequent value ([13]; 18 mg/kg p.o.): 495 ± 6 beats/min.
- heart rate, Δ ([13]; 18 mg/kg p.o.): 13 ± 12 beats/min.
- heart rate, Δ % ([13]; 18 mg/kg p.o.): 3.3 ± 2.8%
- heart rate, subsequent value ([13]; 30 mg/kg p.o.): 493 ± 10 beats/min.
- heart rate, Δ ([13]; 30 mg/kg p.o.): 22 ± 27 beats/min.
- heart rate, Δ % ([13]; 30 mg/kg p.o.): 4.7 ± 6.6%
- heart rate, subsequent value ([13]; 40 mg/kg p.o.): 472 ± 14 beats/min.
- heart rate, Δ ([13]; 40 mg/kg p.o.): -1 ± 29 beats/min.
- heart rate, Δ % ([13]; 40 mg/kg p.o.): 1.0 ± 6.6%
- antiarrhythmic effectiveness, chloroform arrythmias (in words) [14]: dosage-dependently inhibited the arrythmias caused by chloroform
- inhibition in % of CHCl3 arrhythmia ([14]; 10 mg/kg): 10%
- inhibition in % of CHCl3 arrhythmia ([14]; 15 mg/kg): 60%
- inhibition in % of CHCl3 arrhythmia ([14]; 25 mg/kg): 90%
